The target in test [1] is T1, proMMP9(20-445;ΔFnII) (SEQ ID NO:6) (Homo sapiens, UniProt P14780, DEL216-390).
T1 construct: start methionine (N); made in house; host or cells: E. coli BL21(DE3) RIL
T1 sequence (P14780 with tags, fused parts or gaps DEL216-390): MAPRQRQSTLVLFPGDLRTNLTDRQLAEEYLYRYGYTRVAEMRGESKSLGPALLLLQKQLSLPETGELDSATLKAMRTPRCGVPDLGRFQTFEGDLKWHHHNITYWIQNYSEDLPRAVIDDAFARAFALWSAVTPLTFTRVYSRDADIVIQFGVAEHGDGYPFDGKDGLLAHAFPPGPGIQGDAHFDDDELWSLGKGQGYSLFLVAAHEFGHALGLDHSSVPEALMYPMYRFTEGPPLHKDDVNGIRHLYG
Put plainly: ThermoFluor binding assay with proMMP9(20-445;ΔFnII). How it is done:
(§1) The ThermoFluor® (TF) assay is a 384-well plate-based binding assay that measures thermal stability of proteins (Biomol Screen 2001, 6, 429-40; Biochemistry 2005, 44, 5258-66). The experiments were carried out using instruments available from Johnson & Johnson Pharmaceutical Research & Development, LLC. TF dye used in all experiments was […] (1,8-ANS) (Invitrogen: A-47).
(§2) Compounds were arranged in a pre-dispensed plate (Greiner Bio-one: 781280), wherein compounds were serially diluted in 100% DMSO across 11 columns within a series. Columns 12 and 24 were used as DMSO reference and contained no compound. For multiple compound concentration-response experiments, the compound aliquots ([…]) were robotically predispensed directly into black 384-well polypropylene PCR microplates (Abgene: TF-0384/k) using a Cartesian Hummingbird liquid handler (DigiLab, Holliston, Mass.). Following compound dispense, protein and dye solutions were added to achieve the final assay volume of 3 μL. The assay solutions were overlayed with 1 μL of silicone oil (Fluka, type DC 200: 85411) to prevent evaporation.
(§3) Assay plates were robotically loaded onto a thermostatically controlled PCR-type thermal block and then heated from 40 to 90° C. at a ramp-rate of 1° C./min for all experiments. Fluorescence was measured by continuous illumination with UV light (Hamamatsu LC6) supplied via fiber optics and filtered through a band-pass filter (380-400 nm; >60D cutoff). Fluorescence emission of the entire 384-well plate was detected by measuring light intensity using a CCD camera (Sensys, Roper Scientific) filtered to detect 500±25 nm, resulting in simultaneous and independent readings of all 384 wells. A single image with 20-sec exposure time was collected at each temperature, and the sum of the pixel intensity in a given area of the assay plate was recorded vs temperature and fit to standard equations to yield the Tm (J Biomol Screen 2001, 6, 429-40).
(§4) Thermodynamic parameters necessary for fitting compound binding for each proMMP were estimated by differential scanning calorimetry (DSC) and from ThermoFluor® data. The heat capacity of unfolding for each protein was estimated from the molecular weight and from ThermoFluor® dosing data.
ThermoFluor® with proMMP9(20-445;ΔFnII (SEQ ID NO:6)
The protein sample preparations included a desalting buffer exchange step via a PD-10 gravity column (GE Healthcare). The desalting buffer exchange was performed prior to diluting the protein to the final assay concentration of 2.8 μM proMMP9(20-445;ΔFnII) (SEQ ID NO:6). The concentration of proMMP9(20-445;ΔFnII) (SEQ ID NO:6) was determined spectrophotometrically based on a calculated extinction coefficient of ε280=39880 M^−1 cm^−1, a calculated molecular weight of 28.2 kDa, and calculated pI of 5.5. ThermoFluor® reference conditions were define as follows: 80 μg/mL (2.8 μM) proMMP9(20-445;ΔFnII) (SEQ ID NO:6), 50 μM 1,8-ANS, pH 7.0 Buffer (50 mM HEPES pH 7.0, 100 mM NaCl, 0.001% Tween-20, 2.5 mM MgCl2, 300 μM CaCl2). The thermodynamic parameters for proMMP9(20-445;ΔFnII) (SEQ ID NO:6) are as follows: Tm (° C.)=72 (+/−0.1), ΔUH(Tm) (cal mol^−1)=160000(+/−5000), ΔUS(Tm) (cal mol^−1 K^−1)=434, ΔUCp (cal mol^−1 K^−1)=2400.
Background: Differential scanning fluorimetry follows unfolding on heating by fluorescence.

Test [2] has as its target T2, proMMP13(1-268) (SEQ ID NO:7) (Homo sapiens, UniProt P45452).
T2 construct: 6×-histidine tag (C); made in house; host or cells: HEK293 (transient, secreted)
Put plainly: ThermoFluor binding assay with proMMP13(1-268). How it is done:
as §1, §2, §3, §4
ThermoFluor® with proMMP13(1-268) (SEQ ID NO: 7)
The proMMP13(1-268) (SEQ ID NO:7) protein sample preparations included a desalting buffer exchange step via a PD-10 gravity column (GE Healthcare). The desalting buffer exchange was performed prior to diluting the protein to the final assay concentration of 3.5 μM. The concentration of proMMP13(1-268) (SEQ ID NO:7) was estimated spectrophotometrically based on a calculated extinction coefficient of ε280=37000 M^−1 cm^−1, a calculated molecular weight of 30.8 kDa, and calculated pI of 5.33. ThermoFluor® reference conditions were defined as follows: 100 μg/mL proMMP13(1-268) (SEQ ID NO:7), 25 μM 1,8-ANS, pH 7.0 Buffer (50 mM HEPES pH 7.0, 100 mM NaCl, 0.001% Tween-20, 2.5 mM MgCl2, 300 μM CaCl2). The thermodynamic parameters for proMMP13(1-268) (SEQ ID NO:7) are as follows: Tm (° C.)=67 (+/−0.1), ΔUH(Tm) (cal mol^−1)=107000(+/−5000), ΔUS(Tm) (cal mol^−1 K^−1)=318, ΔUCp (cal mol^−1 K^−1)=2600.

The target of test [3] is T3, full-length proMMP9(1-707) (SEQ ID NO:1), activation by catalytic MMP3 (Homo sapiens, UniProt P14780, R574P).
T3 construct: made in house; host or cells: HEK293 (transient, secreted)
T3 sequence (P14780 20-707 R574P): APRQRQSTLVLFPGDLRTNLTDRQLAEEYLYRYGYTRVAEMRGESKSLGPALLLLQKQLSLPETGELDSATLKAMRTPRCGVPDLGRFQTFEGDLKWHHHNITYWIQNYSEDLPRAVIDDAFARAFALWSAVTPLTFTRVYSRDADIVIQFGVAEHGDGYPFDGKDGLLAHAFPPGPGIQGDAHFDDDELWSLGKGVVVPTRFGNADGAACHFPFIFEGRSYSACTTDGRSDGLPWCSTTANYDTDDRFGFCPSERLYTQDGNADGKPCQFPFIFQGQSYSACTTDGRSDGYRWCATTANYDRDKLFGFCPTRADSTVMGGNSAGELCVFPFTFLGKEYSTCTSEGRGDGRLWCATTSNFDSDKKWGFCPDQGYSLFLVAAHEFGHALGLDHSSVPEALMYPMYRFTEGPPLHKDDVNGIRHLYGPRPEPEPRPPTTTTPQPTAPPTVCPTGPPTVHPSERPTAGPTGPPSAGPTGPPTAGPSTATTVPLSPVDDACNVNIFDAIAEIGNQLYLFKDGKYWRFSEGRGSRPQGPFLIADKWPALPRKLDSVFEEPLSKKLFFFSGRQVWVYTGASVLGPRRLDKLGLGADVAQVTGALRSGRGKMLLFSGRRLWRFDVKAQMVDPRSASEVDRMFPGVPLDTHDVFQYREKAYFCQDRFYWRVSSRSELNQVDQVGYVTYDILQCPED
Put plainly: proMMP9/MMP3 P126 Activation Assay. The class given is biochemical. How it is done:
proMMP9/MMP3 P126 Activation Assay
The reaction volume was 50 μL. […] Reactivity of residual MMP3 towards P-126 substrate was minimal under these conditions.

Test [4] addresses T4, proMMP9(67-444;ΔFnII) (SEQ ID NO:5) (Homo sapiens, UniProt P14780, DEL216-390).
T4 construct: start methionine (N); made in house; host or cells: E. coli BL21(DE3) RIL
T4 sequence (P14780 with tags, fused parts or gaps DEL216-390): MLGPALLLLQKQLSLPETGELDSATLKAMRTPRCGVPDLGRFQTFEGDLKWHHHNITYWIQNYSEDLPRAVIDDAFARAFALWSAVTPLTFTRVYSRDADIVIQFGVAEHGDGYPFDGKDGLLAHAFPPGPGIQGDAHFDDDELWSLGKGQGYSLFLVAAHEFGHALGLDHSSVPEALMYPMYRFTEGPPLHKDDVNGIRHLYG
The experiment in a line: ThermoFluor binding assay with proMMP9(67-444;ΔFnII). How it is done: as §1, §2, §3, §4
ThermoFluor® with proMMP9(67-444;ΔFnII (SEQ ID NO:5)
The protein sample preparations had to include a desalting buffer exchange step via a PD-10 gravity column (GE Healthcare). The desalting buffer exchange was performed prior to diluting the protein to the final assay concentration of 3.5 μM proMMP9(67-444;ΔFnII) (SEQ ID NO:5). The concentration of proMMP9(67-444;ΔFnII) (SEQ ID NO:5) was determined spectrophotometrically based on a calculated extinction coefficient of ε280=33900 M^−1 cm^−1, a calculated molecular weight of 22.6 kDa, and calculated pI of 5.20. ThermoFluor® reference conditions were defined as follows: 80 μg/mL (3.5 μM) proMMP9(67-444;ΔFnII) (SEQ ID NO:5), 50 μM 1,8-ANS, pH 7.0 Buffer (50 mM HEPES pH 7.0, 100 mM NaCl, 0.001% Tween-20, 2.5 mM MgCl2, 300 μM CaCl2). The thermodynamic parameters for proMMP9(67-444;ΔFnII) (SEQ ID NO:5) are as follows: Tm (° C.)=63 (+/−0.1), ΔUH(Tm) (cal mol^−1)=105000(+/−5000), ΔUS(Tm) (cal mol^−1 K^−1)=450, ΔuCp (cal mol^−1 K^−1)=2000.

Results on 13 molecules are retold here after US20120129872A1, “FUSED HETEROARYL INHIBITORS OF PRO-MATRIX METALLOPROTEINASE ACTIVATION” (priority 2010, published 2012).

One may read the Kd as the concentration at which binding is half-saturated. A word on the IC50: it is the concentration that inhibits the measured activity by half. A low value points to greater potency in that assay.

Where a name gives a salt, the structure may show the parent alone.

On to `CCOc1ccc(S(N)(=O)=O)cc1Nc1nc(-n2c(C)nc3ccccc32)cs1` [Example 5, 4-Ethoxy-3-[4-(2-methyl-benzoimidazol-1-yl)-thiazol-2-ylamino]-benzenesulfonamide], for which the Kd in test [1] came out at 9.7 µM; in test [2] it was 4.8 µM; in test [4] it was 16 µM. In addition, the midpoint of inhibition in test [3], the IC50, lay at 13.8 µM.

Turning to `Cc1nc2cc(-c3csc(Nc4cc(S(N)(=O)=O)ccc4OC(C)C)n3)ccc2[nH]1` [Example 18, 4-Isopropoxy-3-[4-(2-methyl-1H-benzoimidazol-5-yl)-thiazol-2-ylamino]-benzenesulfonamide•TFA], the Kd in test [1] was determined as 0.14 µM; in test [4] it was 0.44 µM. The molecule also showed an IC50 in test [3] of 0.36 µM.

For `CC(C)Oc1ccc(C(N)=O)cc1Nc1nc(-c2nc3ccccc3n2C)cs1` [Example 4, 4-Isopropoxy-3-[4-(1-methyl-1H-benzoimidazol-2-yl)-thiazol-2-ylamino]-benzamide•TFA], the equilibrium dissociation constant (Kd) came to 16 µM in test [1], 13 µM in test [2] and 9.8 µM in test [4]. This molecule gave an IC50 in test [3] of approximately 7 µM.

For the molecule `Cc1c(-c2csc(Nc3cc(C(N)=O)ccc3OC(C)C)n2)sc2ccccc12` [Example 3, 4-Isopropoxy-3-[4-(3-methyl-benzo[b]thiophen-2-yl)-thiazol-2-ylamino]-benzamide•HBr], the Kd in test [1] is 1.2 µM; in test [2], 1.9 µM; in test [4] it was 0.75 µM. In test [3], this molecule gave an IC50 of 2.5 µM.

Regarding `Cc1nc2ccc(Cl)cn2c1-c1csc(Nc2cc(C(N)=O)ccc2OC(C)C)n1` [Example 6, 3-[4-(6-Chloro-2-methyl-imidazo[1,2-a]pyridin-3-yl)-thiazol-2-ylamino]-4-isopropoxy-benzamide], the figures for the Kd in test [1], in test [2] and in test [4] were 0.49 µM, 1.1 µM and 17 µM, respectively. Besides, in test [3], the IC50 came to 0.64 µM.

`COc1cc(C)c(C(N)=O)cc1Nc1nc(-c2ccc3c(c2)ncn3C)cs1` [Example 1, 4-Methoxy-2-methyl-5-[4-(1-methyl-1H-benzoimidazol-5-yl)-thiazol-2-ylamino]-benzamide]: the Kd in test [1] was 1.7 µM; in test [4] it was 7.5 µM. This molecule also came in with an IC50 in test [3] of 2.3 µM.

As to `CC(C)Oc1ccc(S(N)(=O)=O)cc1Nc1nc(-c2ccc3c(c2)ncn3C)cs1` [Example 9, 4-Isopropoxy-3-[4-(1-methyl-1H-benzoimidazol-5-yl)-thiazol-2-ylamino]-benzenesulfonamide•HCl], the Kd in test [1] was 0.26 µM; in test [4] it was 2 µM. In test [3], this molecule displayed an IC50 of 0.15 µM.

Consider `CC(C)Cc1ccc(C(N)=O)cc1Nc1nc(-c2ccc3c(c2)ncn3C)cs1` [Example 2, 4-Isobutyl-3-[4-(1-methyl-1H-benzoimidazol-5-yl)-thiazol-2-ylamino]-benzamide•TFA], for which the Kd in test [1] came out at 0.69 µM; in test [4] it was 6 µM. Besides, the concentration for half-maximal inhibition (IC50) in test [3] was approximately 3 µM.

As for `CC(C)Oc1ccc(S(N)(=O)=O)cc1Nc1nc(-c2ccc3[nH]cnc3c2)cs1` [Example 21, 3-[4-(1H-Benzoimidazol-5-yl)-thiazol-2-ylamino]-4-isopropoxy-benzenesulfonamide•TFA], the Kd came out at 0.091 µM in test [1] and 1.4 µM in test [4]. Also, inhibition in test [3] was half-maximal at 0.32 µM (IC50).

In the case of `Cc1ccn2c(-c3csc(Nc4cc(C(N)=O)ccc4OC(C)C)n3)c(C)nc2c1` [Example 7, 3-[4-(2,7-Dimethyl-imidazo[1,2-a]pyridin-3-yl)-thiazol-2-ylamino]-4-isopropoxy-benzamide], the Kd worked out at 1.5 µM in test [1], 1.2 µM in test [2] and 9.6 µM in test [4]. The same molecule displayed an IC50 in test [3] of 1.8 µM.

As to `Cc1nc2ccc(-c3csc(Nc4cc(S(N)(=O)=O)ccc4OC(C)C)n3)cc2n1C` [Example 22, 3-[4-(2,3-Dimethyl-3H-benzoimidazol-5-yl)-thiazol-2-ylamino]-4-isopropoxy-benzenesulfonamide•TFA], the Kd in test [1] worked out at 0.17 µM; in test [4], 0.48 µM. The molecule also registered an IC50 in test [3] of 0.24 µM.

Regarding `Cc1nc2cc(-c3csc(Nc4cc(S(N)(=O)=O)ccc4OC(C)C)n3)ccc2n1C` [Example 23, 3-[4-(1,2-Dimethyl-1H-benzoimidazol-5-yl)-thiazol-2-ylamino]-4-isopropoxy-benzenesulfonamide•TFA], the Kd in test [1] was 0.36 µM; in test [4] it was 1.1 µM. Moreover, the IC50 in test [3] came to 0.18 µM.

On to `CC(C)Oc1ccc(S(N)(=O)=O)cc1Nc1nc(-c2ccc3occc3c2)cs1` [Example 24, 3-(4-Benzofuran-5-yl-thiazol-2-ylamino)-4-isopropoxy-benzenesulfonamide•TFA], for which the Kd in test [1] is 0.24 µM; in test [4], 0.67 µM. Inhibition in test [3] was half-maximal at 3.4 µM (IC50).
